Columns and labels:
Test in all cases: Test E greenhouse herbicide test, pre- and postemergence
Assay type in all cases: in vivo
[1] = tested on: Italian ryegrass (Lolium multiflorum)
In short: (§1)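 Seeds were sown in silt loam and sprayed preemergence with compound in a non-phytotoxic solvent mix containing surfactant; for postemergence, plants at 2 to 18 cm (1- to 4-leaf stage) in peat-based potting medium were sprayed with the same formulation. After 14 to 21 d in a greenhouse, injury was rated visually against controls (0–100).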

[2] = tested on: arrowleaf sida (Sida rhombifolia)
In short: as §1

[3] = tested on: barnyardgrass (Echinochloa crus-galli)
In short: as §1

[4] = tested on: beggarticks (hairy beggarticks, Bidens pilosa)
In short: as §1

[5] = tested on: field bindweed (Convolvulus arvensis)
In short: as §1

[6] = tested on: goosegrass (Eleusine indica); settings: Preemergence
In short: as §1

[7] = tested on: horseweed (Conyza canadensis)
In short: as §1

[8] = tested on: momingglory (Ipomoea coccinea); settings: Preemergence
In short: as §1

[9] = tested on: nightshade (eastern black nightshade, Solanum ptycanthum); settings: Preemergence
In short: as §1

[10] = tested on: ragweed (common ragweed, Ambrosia elatior)
In short: as §1

[11] = tested on: surinam grass (Brachiaria decumbens); settings: Preemergence
In short: as §1

[12] = tested on: waterhemp (common waterhemp, Amaranthus rudis)
In short: as §1

[13] = 62 g ai/ha, Preemergence, scale 0 to 100 (0 no effect, 100 complete control)
[14] = 125 g ai/ha, Preemergence, scale 0 to 100 (0 no effect, 100 complete control)
[15] = Preemergence, 16 g ai/ha, scale 0 to 100, 0 no effect, 100 complete control
[16] = Preemergence, 31 g ai/ha, scale 0 to 100, 0 no effect, 100 complete control
[17] = 62 g ai/ha, scale 0 to 100 (0 no effect, 100 complete control)
[18] = 125 g ai/ha, scale 0 to 100 (0 no effect, 100 complete control)
[19] = 16 g ai/ha, scale 0 to 100, 0 no effect, 100 complete control
[20] = 31 g ai/ha, scale 0 to 100, 0 no effect, 100 complete control
[21] = 62 g ai/ha, Postemergence, scale 0 to 100 (0 no effect, 100 complete control)
[22] = 125 g ai/ha, Postemergence, scale 0 to 100 (0 no effect, 100 complete control)
[23] = Postemergence, 16 g ai/ha, visual, scale 0 no effect to 100 complete control
[24] = Postemergence, 31 g ai/ha, visual, scale 0 no effect to 100 complete control

## COC(=O)Oc1c(C)nn(C)c(=O)c1-c1c(C)sc2ccc(C)cc12 [Compound 80]
[1]; [13]
  Plant response rating, Ryegrass, Italian: 98
[1]; [14]
  Plant response rating, Ryegrass, Italian: 98
[1]; [15]
  Plant response rating, Ryegrass, Italian: 50
[1]; [16]
  Plant response rating, Ryegrass, Italian: 70
[2]; [13]
  Plant response rating, Arrowleaf Sida: 35
[2]; [14]
  Plant response rating, Arrowleaf Sida: 25
[2]; [15]
  Plant response rating, Arrowleaf Sida: 0
[2]; [16]
  Plant response rating, Arrowleaf Sida: 0
[3]; [13]
  Plant response rating, Barnyardgrass: 20
[3]; [14]
  Plant response rating, Barnyardgrass: 20
[3]; [15]
  Plant response rating, Barnyardgrass: 0
[3]; [16]
  Plant response rating, Barnyardgrass: 0
[4]; [13]
  Plant response rating, Beggarticks: 100
[4]; [14]
  Plant response rating, Beggarticks: 100
[4]; [15]
  Plant response rating, Beggarticks: 100
[4]; [16]
  Plant response rating, Beggarticks: 85
[5]; [13]
  Plant response rating, Field Bindweed: 70
[5]; [14]
  Plant response rating, Field Bindweed: 100
[5]; [15]
  Plant response rating, Field Bindweed: 20
[5]; [16]
  Plant response rating, Field Bindweed: 25
[6]; [17]
  Plant response rating, Goosegrass: 30
[6]; [18]
  Plant response rating, Goosegrass: 20
[6]; [19]
  Plant response rating, Goosegrass: 0
[6]; [20]
  Plant response rating, Goosegrass: 0
[7]; [13]
  Plant response rating, Horseweed: 100
[7]; [14]
  Plant response rating, Horseweed: 100
[7]; [15]
  Plant response rating, Horseweed: 100
[7]; [16]
  Plant response rating, Horseweed: 100
[8]; [17]
  Plant response rating, Morningglory: 70
[8]; [18]
  Plant response rating, Morningglory: 75
[8]; [19]
  Plant response rating, Morningglory: 0
[8]; [20]
  Plant response rating, Morningglory: 65
[9]; [17]
  Plant response rating, Nightshade: 100
[9]; [18]
  Plant response rating, Nightshade: 98
[9]; [19]
  Plant response rating, Nightshade: 75
[9]; [20]
  Plant response rating, Nightshade: 75
[10]; [13]
  Plant response rating, Ragweed: 100
[10]; [14]
  Plant response rating, Ragweed: 100
[10]; [15]
  Plant response rating, Ragweed: 70
[10]; [16]
  Plant response rating, Ragweed: 70
[11]; [17]
  Plant response rating, Surinam Grass: 20
[11]; [18]
  Plant response rating, Surinam Grass: 75
[11]; [19]
  Plant response rating, Surinam Grass: 0
[11]; [20]
  Plant response rating, Surinam Grass: 10
[12]; [13]
  Plant response rating, Waterhemp: 100
[12]; [14]
  Plant response rating, Waterhemp: 100
[12]; [15]
  Plant response rating, Waterhemp: 0
[12]; [16]
  Plant response rating, Waterhemp: 70

## CCCC(=O)Oc1c(C)nn(C)c(=O)c1-c1c(C)sc2ccc(C)cc12 [Compound 105]
[1]; [21]
  Plant response rating, Ryegrass, Italian: 70
[1]; [13]
  Plant response rating, Ryegrass, Italian: 95
[1]; [22]
  Plant response rating, Ryegrass, Italian: 80
[1]; [14]
  Plant response rating, Ryegrass, Italian: 100
[1]; [23]
  Plant response rating, Ryegrass, Italian: 30
[1]; [24]
  Plant response rating, Ryegrass, Italian: 50
[1]; [15]
  Plant response rating, Ryegrass, Italian: 75
[1]; [16]
  Plant response rating, Ryegrass, Italian: 90
[2]; [21]
  Plant response rating, Arrowleaf Sida: 60
[2]; [13]
  Plant response rating, Arrowleaf Sida: 40
[2]; [22]
  Plant response rating, Arrowleaf Sida: 70
[2]; [14]
  Plant response rating, Arrowleaf Sida: 50
[2]; [23]
  Plant response rating, Arrowleaf Sida: 50
[2]; [24]
  Plant response rating, Arrowleaf Sida: 60
[2]; [15]
  Plant response rating, Arrowleaf Sida: 0
[2]; [16]
  Plant response rating, Arrowleaf Sida: 0
[3]; [21]
  Plant response rating, Barnyardgrass: 30
[3]; [13]
  Plant response rating, Barnyardgrass: 20
[3]; [22]
  Plant response rating, Barnyardgrass: 30
[3]; [14]
  Plant response rating, Barnyardgrass: 35
[3]; [23]
  Plant response rating, Barnyardgrass: 15
[3]; [24]
  Plant response rating, Barnyardgrass: 20
[3]; [15]
  Plant response rating, Barnyardgrass: 20
[4]; [21]
  Plant response rating, Beggarticks: 100
[4]; [13]
  Plant response rating, Beggarticks: 100
[4]; [22]
  Plant response rating, Beggarticks: 100
[4]; [14]
  Plant response rating, Beggarticks: 100
[4]; [23]
  Plant response rating, Beggarticks: 80
[4]; [24]
  Plant response rating, Beggarticks: 90
[4]; [15]
  Plant response rating, Beggarticks: 90
[4]; [16]
  Plant response rating, Beggarticks: 80
[5]; [21]
  Plant response rating, Field Bindweed: 75
[5]; [13]
  Plant response rating, Field Bindweed: 50
[5]; [22]
  Plant response rating, Field Bindweed: 95
[5]; [14]
  Plant response rating, Field Bindweed: 70
[5]; [23]
  Plant response rating, Field Bindweed: 75
[5]; [24]
  Plant response rating, Field Bindweed: 80
[5]; [15]
  Plant response rating, Field Bindweed: 20
[5]; [16]
  Plant response rating, Field Bindweed: 20
[6]; [17]
  Plant response rating, Goosegrass: 0
[6]; [18]
  Plant response rating, Goosegrass: 10
[6]; [19]
  Plant response rating, Goosegrass: 0
[6]; [20]
  Plant response rating, Goosegrass: 0
[7]; [21]
  Plant response rating, Horseweed: 85
[7]; [13]
  Plant response rating, Horseweed: 100
[7]; [14]
  Plant response rating, Horseweed: 100
[7]; [23]
  Plant response rating, Horseweed: 80
[7]; [24]
  Plant response rating, Horseweed: 85
[7]; [15]
  Plant response rating, Horseweed: 0
[7]; [16]
  Plant response rating, Horseweed: 0
[8]; [17]
  Plant response rating, Morningglory: 70
[8]; [18]
  Plant response rating, Morningglory: 60
[8]; [19]
  Plant response rating, Morningglory: 40
[8]; [20]
  Plant response rating, Morningglory: 20
[9]; [17]
  Plant response rating, Nightshade: 98
[9]; [18]
  Plant response rating, Nightshade: 98
[9]; [19]
  Plant response rating, Nightshade: 0
[9]; [20]
  Plant response rating, Nightshade: 50
[10]; [21]
  Plant response rating, Ragweed: 90
[10]; [13]
  Plant response rating, Ragweed: 95
[10]; [22]
  Plant response rating, Ragweed: 95
[10]; [14]
  Plant response rating, Ragweed: 98
[10]; [23]
  Plant response rating, Ragweed: 70
[10]; [15]
  Plant response rating, Ragweed: 50
[10]; [16]
  Plant response rating, Ragweed: 65
[11]; [17]
  Plant response rating, Surinam Grass: 10
[11]; [18]
  Plant response rating, Surinam Grass: 70
[11]; [19]
  Plant response rating, Surinam Grass: 0
[11]; [20]
  Plant response rating, Surinam Grass: 0
[12]; [13]
  Plant response rating, Waterhemp: 90
[12]; [22]
  Plant response rating, Waterhemp: 90
[12]; [14]
  Plant response rating, Waterhemp: 100
[12]; [23]
  Plant response rating, Waterhemp: 60
[12]; [24]
  Plant response rating, Waterhemp: 70
[12]; [15]
  Plant response rating, Waterhemp: 70
[12]; [16]
  Plant response rating, Waterhemp: 80
